Measurements reported in patent US8835571B2, “Fatty acid derivative-polymer conjugate” (Sucampo AG, priority 2012, dated 2014).

Assay: incorporation of unoprostone isopropyl into MPEG-hexPLA polymer micelles
Assay type: physicochemical
Protocol: The incorporation studies were carried out by a standard formulation protocol. Briefly, a defined amount of the provided unoprostone isopropyl ethanol solution was taken and the ethanol rapidly evaporated, the remaining compound was re-dissolved together with the MPEG-hexPLA excipient in acetone and added dropwise under sonication into water, followed by evaporation of the organic solvent and equilibration of the micelle solution overnight.
As it can be seen, for loadings up to 500 mg unoprostone isopropyl per gram MPEGhexPLA, loading efficiencies higher than 80% could be obtained by this simple procedure (FIG. 1), corresponding to 2.22 mg drug per mL formulation (FIG. 2). […] The latter formulations with a minimum of drug loss in the formulation procedure gave transparent formulations.

SMILES: CCCCCCCC(=O)CC[C@@H]1[C@@H](C/C=C\CCCC(=O)OC(C)C)[C@@H](O)C[C@H]1O [unoprostone isopropyl, (+)-isopropyl (Z)-7-[(1R,2R,3R,5S)-3,5-dihydroxy-2-(3-oxodecyl)cyclopentyl]hept-5-enoate]
- obtained drug concentration in formulation (loading 500 mg per gram MPEGhexPLA (FIG. 2)): 2.22 mg drug per mL formulation
- Incorporation efficiencies (loadings up to 300 mg/g): > 90%
- obtained drug concentration in formulation (loadings up to 300 mg/g): ≤ 1.67 mg/mL
- loading efficiencies (loadings up to 500 mg unoprostone isopropyl per gram MPEGhexPLA (FIG. 1)): higher than 80%
